Laboratory results taken from PubChem BioAssay AID720592 (Broad Institute, 2013).
Calls of active or inactive are those of the source. No rule for the calls is given here.

target: BioA (adenosylmethionine-8-amino-7-oxononanoate aminotransferase), Mycobacterium tuberculosis; test: Mtb BioA aminotransferase inhibitors, dose response, biochemical, plate reader, dry powder samples (AID 720592); settings: purified Mtb BioA enzyme, plate reader activity

Q: Which AC50 does the source give for `COc1ccc(NC(=O)N2CCN(c3ccccc3)CC2)cc1` here?
A: Its AC50 is > 20 µM (inactive).

Q: `O=C(c1ccc2c(c1)OCO2)N1CCN(c2ccc(Cl)cc2)CC1` was tested. Which AC50 did it give?
A: Its AC50 is > 20 µM (inactive).

Q: Which AC50 does the source give for `Cc1ccccc1/C=C(\CCC(=O)O)c1nc2ccccc2s1` here?
A: The AC50 was > 20 µM (inactive).

Q: For `COc1ccc(C(=O)N2CCN(c3ccc(C(C)=O)cc3)CC2)cc1`, which AC50 is on record?
A: The AC50 was > 20 µM (inactive).

Q: With `O=C(Nc1cccnc1)c1cnn2c(C(F)(F)F)cc(-c3ccccc3)nc12` as the molecule, how does the AC50 read?
A: Its AC50 is > 20 µM (inactive).

Q: How did the AC50 turn out when `O=C(Nc1ccc(F)cc1)N1CCN(c2ccccc2)CC1` was run?
A: Its AC50 is > 20 µM (inactive).

Q: How did the AC50 turn out when `CC(=O)c1ccc(N2CCN(C(=O)c3cccc(Cl)c3)CC2)cc1` was run?
A: The AC50 was > 20 µM (inactive).

Q: With `Cc1cc(C)n2nc(C(=O)Nc3cccnc3)nc2n1` as the molecule, how does the AC50 read?
A: Its AC50 is > 20 µM (inactive).

same assay, conditions: purified Mtb BioA enzyme, plate reader activity; at 10 µM (top of the series)

Q: How did the inhibition turn out when `O=C(Nc1ccc2snnc2c1)N1CCCCC1` was run?
A: Its inhibition is “inactive”.

Q: With `COc1cccc(NC(=O)N2CCN(c3ccccc3)CC2)c1` as the molecule, how does the inhibition read?
A: Its inhibition is “inactive”.

Q: How did the inhibition turn out when `O=C(O)CC/C(=C\c1ccccc1[N+](=O)[O-])c1nc2ccccc2s1` was run?
A: Its inhibition is “inactive”.

Q: For `O=C(Nc1ccccc1)N1CCN(c2ccccc2)CC1`, which inhibition is on record?
A: Its inhibition is “inactive”.

Q: `Cc1cc(C)n2nc(C(=O)Nc3cccnc3)cc2n1` was tested. Which inhibition did it give?
A: Its inhibition is “inactive”.

Q: How did the inhibition turn out when `COc1cccc(C(=O)N2CCN(c3ccc(C(C)=O)cc3)CC2)c1` was run?
A: The inhibition was “inactive”.

Q: `CC(=O)c1ccc(N2CCN(C(=O)c3ccc4c(c3)OCCO4)CC2)cc1` was tested. Which inhibition did it give?
A: The inhibition was “inactive”.

Q: For `CCc1ccc(C(=O)N2CCN(Cc3ccc4c(c3)OCO4)CC2)cc1`, which inhibition is on record?
A: The inhibition was “inactive”.

Q: With `CC(=O)c1ccc(N2CCN(C(=O)c3ccc(Br)cc3)CC2)c(F)c1` as the molecule, how does the inhibition read?
A: The inhibition was “inactive”.

Q: For `Cc1cccc(/C=C(\CCC(=O)O)c2nc3ccccc3s2)c1`, which inhibition is on record?
A: Its inhibition is “inactive”.

Q: With `O=C(Nc1ccc(Cl)c(-c2nc3ccccc3[nH]2)c1)c1cccnc1` as the molecule, how does the inhibition read?
A: Its inhibition is “inactive”.

Q: `O=C(c1ccc2c(c1)OCO2)N1CCN(Cc2ccccc2)CC1` was tested. Which inhibition did it give?
A: The inhibition was “inactive”.

Q: `CCOC(=O)N1CCN(C(=O)Nc2ccc3snnc3c2)CC1` was tested. Which inhibition did it give?
A: Its inhibition is “inactive”.

Q: With `O=C(O)CC/C(=C\c1ccc([N+](=O)[O-])cc1)c1nc2ccccc2s1` as the molecule, how does the inhibition read?
A: The inhibition was “inactive”.

Q: How did the inhibition turn out when `CC(=O)c1ccc(N2CCN(C(=O)c3cccnc3)CC2)cc1` was run?
A: Its inhibition is “inactive”.

Q: With `O=C(c1ccc2c(c1)OCO2)N1CCN(c2ccc(F)cc2)CC1` as the molecule, how does the inhibition read?
A: Its inhibition is “inactive”.

Q: With `O=C(Nc1cccc(Cl)c1)N1CCN(c2ccccc2)CC1` as the molecule, how does the inhibition read?
A: Its inhibition is “inactive”.

Q: With `COc1ccc(N2CCN(C(=O)c3ccc4c(c3)OCO4)CC2)cc1` as the molecule, how does the inhibition read?
A: Its inhibition is “inactive”.

Q: For `Cc1ccc(/C=C(\CC(=O)O)c2nc3ccccc3s2)cc1[N+](=O)[O-]`, which inhibition is on record?
A: The inhibition was “inactive”.

Q: `Cc1ccc(-c2cc(C(F)(F)F)n3nc(C(=O)Nc4cccnc4)cc3n2)cc1` was tested. Which inhibition did it give?
A: Its inhibition is “inactive”.

Q: `O=C(Nc1ccncc1)c1cc2nc(C3CC3)cc(C(F)F)n2n1` was tested. Which inhibition did it give?
A: Its inhibition is “inactive”.

Q: How did the inhibition turn out when `CCN(CC)c1ccc2cc(C(=O)c3cccs3)c(=O)oc2c1` was run?
A: Its inhibition is “inactive”.

Q: With `CC(=O)c1ccc(N2CCN(C(=O)c3ccc(F)cc3)CC2)cc1` as the molecule, how does the inhibition read?
A: Its inhibition is “inactive”.

Q: Which inhibition does the source give for `COc1cccc(NC(=O)CCC2CCN(C(=O)c3ccc(C(C)=O)s3)CC2)c1` here?
A: The inhibition was “inactive”.

Q: With `Cc1ccc(NC(=O)N2CCN(c3ccccc3)CC2)cc1` as the molecule, how does the inhibition read?
A: The inhibition was “inactive”.

Q: For `COC(=O)c1c(C(=O)OC)c(-c2cccc(F)c2)n2c1CS(=O)C2` (stereo not given), which inhibition is on record?
A: The inhibition was “inactive”.

Q: `O=C(c1ccc2c(c1)OCO2)N1CCN(c2ccccc2)CC1` was tested. Which inhibition did it give?
A: The inhibition was “inactive”.

Q: `Cc1nc2cc(NC(=O)N3CCN(c4ccccc4)CC3)ccc2o1` was tested. Which inhibition did it give?
A: Its inhibition is “inactive”.

Q: Which inhibition does the source give for `Cc1ccc(/C=C(\CCC(=O)O)c2nc3ccccc3s2)cc1` here?
A: The inhibition was “inactive”.

Q: `O=C(Nc1ccc2snnc2c1)N1CCN(c2ccccc2)CC1` was tested. Which inhibition did it give?
A: The inhibition was “inactive”.

Q: `O=C(Nc1ccc(Cl)cc1)c1cc2nc(C3CC3)cc(C(F)(F)F)n2n1` was tested. Which inhibition did it give?
A: Its inhibition is “inactive”.

Q: With `CC(=O)c1ccc(N2CCN(C(=O)c3ccc4c(c3)OCO4)CC2)cc1` as the molecule, how does the inhibition read?
A: The inhibition was “inactive”.

Q: With `O=C(Nc1cccnc1)c1cc2nc(-c3cccs3)cc(C(F)(F)F)n2n1` as the molecule, how does the inhibition read?
A: Its inhibition is “inactive”.

Q: For `O=C(COc1ccc2ccc(=O)oc2c1)N1CCN(c2ccc(F)cc2)CC1`, which inhibition is on record?
A: The inhibition was “inactive”.

Q: Which inhibition does the source give for `Cc1ccc(/C=C(\CCC(=O)O)c2nc3ccccc3s2)cc1[N+](=O)[O-]` here?
A: The inhibition was “inactive”.

Q: Which inhibition does the source give for `O=C(Nc1cccnc1)N1CCN(c2ccccc2)CC1` here?
A: Its inhibition is “inactive”.

Q: `O=C(Nc1ccc2[nH]ccc2c1)N1CCN(c2ccccc2)CC1` was tested. Which inhibition did it give?
A: The inhibition was “inactive”.

Q: How did the inhibition turn out when `O=C(Nc1cccc(F)c1)N1CCN(c2ccccc2)CC1` was run?
A: Its inhibition is “inactive”.

Q: `COc1ccc(-c2cc(C(F)(F)F)n3nc(C(=O)Nc4cccnc4)cc3n2)cc1` was tested. Which inhibition did it give?
A: Its inhibition is “inactive”.

Q: With `O=C(Nc1ccc2snnc2c1)N1CCOCC1` as the molecule, how does the inhibition read?
A: Its inhibition is “inactive”.

Q: With `Cc1nc2ccc(NC(=O)N3CCN(c4ccccc4)CC3)cc2s1` as the molecule, how does the inhibition read?
A: The inhibition was “inactive”.

Q: `CC(=O)c1ccc(N2CCN(C(=O)c3ccccc3)CC2)cc1` was tested. Which inhibition did it give?
A: Its inhibition is “inactive”.

Q: How did the inhibition turn out when `CC(C)(C)c1ccc(C(=O)N2CCN(c3ccc4c(c3)OCO4)CC2)cc1` was run?
A: Its inhibition is “inactive”.

Q: How did the inhibition turn out when `CC(=O)c1ccc(N2CCN(C(=O)c3cccc(F)c3)CC2)cc1` was run?
A: Its inhibition is “inactive”.

Q: `CC(=O)c1ccc(N2CCN(C(=O)c3ccc4ncsc4c3)CC2)cc1` was tested. Which inhibition did it give?
A: Its inhibition is “inactive”.

Q: How did the inhibition turn out when `CCc1ccc(N2CCN(C(=O)c3ccc4c(c3)OCO4)CC2)cc1` was run?
A: Its inhibition is “inactive”.

Q: With `CC(=O)c1ccc(N2CCN(C(=O)c3ccc(C)cc3)CC2)cc1` as the molecule, how does the inhibition read?
A: Its inhibition is “inactive”.

Q: With `O=C(Nc1cccnc1)c1cnn2c(C(F)F)cc(C3CC3)nc12` as the molecule, how does the inhibition read?
A: Its inhibition is “inactive”.

Q: `CC(=O)c1ccc(N2CCN(Cc3ccc4c(c3)OCO4)CC2)cc1` was tested. Which inhibition did it give?
A: The inhibition was “inactive”.

Q: How did the inhibition turn out when `CC(=O)c1ccc(N2CCN(C(=O)c3ccc(Cl)cc3)CC2)cc1` was run?
A: Its inhibition is “inactive”.

Q: `Cc1ccc(/C=C(\CCCC(=O)O)c2nc3ccccc3s2)cc1[N+](=O)[O-]` was tested. Which inhibition did it give?
A: The inhibition was “inactive”.

Q: For `COc1cc(/C=C/C(=O)Nc2cccnc2)cc(OC)c1OC`, which inhibition is on record?
A: The inhibition was “inactive”.
